{"source": "paper PMC3537229", "about": "(European journal of pharmacology, 2012)", "key": {"mice [1]": {"tested_on": "mice", "conditions": "mice, 1, 3 or 10 mg/kg, i.p.; ref Robinson et al. (2012); cited from earlier work"}, "SERT [2]": {"biological_target": "T1, SERT (Rattus norvegicus, UniProt P31652)", "T1 sequence (P31652 whole entry)": "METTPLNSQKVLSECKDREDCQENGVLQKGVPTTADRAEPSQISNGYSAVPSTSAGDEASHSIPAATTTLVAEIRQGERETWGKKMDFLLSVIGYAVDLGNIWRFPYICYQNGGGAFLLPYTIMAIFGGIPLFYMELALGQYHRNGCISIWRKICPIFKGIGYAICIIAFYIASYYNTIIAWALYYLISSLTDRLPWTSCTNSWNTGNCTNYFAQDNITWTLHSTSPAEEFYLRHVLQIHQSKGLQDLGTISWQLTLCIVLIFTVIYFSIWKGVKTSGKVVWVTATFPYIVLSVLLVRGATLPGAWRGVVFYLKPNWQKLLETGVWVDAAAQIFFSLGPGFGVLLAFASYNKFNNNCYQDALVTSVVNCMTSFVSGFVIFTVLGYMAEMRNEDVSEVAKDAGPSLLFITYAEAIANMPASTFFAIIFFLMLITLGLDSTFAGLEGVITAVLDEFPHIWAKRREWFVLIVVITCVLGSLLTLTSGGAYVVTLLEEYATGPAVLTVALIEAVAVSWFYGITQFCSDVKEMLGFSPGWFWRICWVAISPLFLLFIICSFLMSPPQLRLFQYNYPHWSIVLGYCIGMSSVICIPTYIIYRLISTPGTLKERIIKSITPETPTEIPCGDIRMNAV", "conditions": "percentage of maximal release response; ref Baumann et al. (2012b); cited from earlier work"}, "NET [3]": {"biological_target": "T2, NET (Rattus norvegicus, UniProt Q63380)", "T2 sequence (Q63380 1-617)": "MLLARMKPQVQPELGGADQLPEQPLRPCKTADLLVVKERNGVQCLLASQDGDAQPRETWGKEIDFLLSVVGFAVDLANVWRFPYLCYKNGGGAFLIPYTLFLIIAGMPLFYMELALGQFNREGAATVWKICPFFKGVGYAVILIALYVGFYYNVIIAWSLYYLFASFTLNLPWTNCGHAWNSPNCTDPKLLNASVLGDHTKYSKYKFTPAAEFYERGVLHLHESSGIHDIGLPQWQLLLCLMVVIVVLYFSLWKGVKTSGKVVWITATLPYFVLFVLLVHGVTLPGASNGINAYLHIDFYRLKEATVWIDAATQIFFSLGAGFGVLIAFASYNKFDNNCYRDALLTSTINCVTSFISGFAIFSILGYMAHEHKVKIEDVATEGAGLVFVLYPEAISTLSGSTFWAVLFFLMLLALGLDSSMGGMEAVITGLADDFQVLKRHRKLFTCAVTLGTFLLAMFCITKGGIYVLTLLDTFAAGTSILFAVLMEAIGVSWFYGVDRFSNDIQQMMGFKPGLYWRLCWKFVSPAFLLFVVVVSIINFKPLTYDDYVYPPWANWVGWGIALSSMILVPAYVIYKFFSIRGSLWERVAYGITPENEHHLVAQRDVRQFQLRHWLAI", "conditions": "percentage of maximal release response; ref Baumann et al. (2012b); cited from earlier work"}, "[4]": {"tested_on": "extracellular levels of dopamine and serotonin in rat nucleus accumbens", "conditions": "i.v. injection, 0.3 or 1.0 mg/kg; ref Baumann et al., 2012a; cited from earlier work"}, "rats [5]": {"tested_on": "rats", "conditions": "cited from earlier work"}, "mice [6]": {"tested_on": "mice", "conditions": "30 mg/kg, i.p.; ref Lisek et al., 2012; cited from earlier work"}, "[7]": {"conditions": "ref Kehr et al., 2011; cited from earlier work"}, "rats [8]": {"tested_on": "rats", "conditions": "30 mg/kg, i.p.; ref Lisek et al., 2012; cited from earlier work"}, "mice [9]": {"tested_on": "mice", "conditions": "ref Angoa-Perez et al., 2012, Lopez-Arnau et al., Marusich et al.; cited from earlier work"}, "DAT [10]": {"biological_target": "T3, DAT (Rattus norvegicus, UniProt P23977)", "T3 sequence (P23977 whole entry)": "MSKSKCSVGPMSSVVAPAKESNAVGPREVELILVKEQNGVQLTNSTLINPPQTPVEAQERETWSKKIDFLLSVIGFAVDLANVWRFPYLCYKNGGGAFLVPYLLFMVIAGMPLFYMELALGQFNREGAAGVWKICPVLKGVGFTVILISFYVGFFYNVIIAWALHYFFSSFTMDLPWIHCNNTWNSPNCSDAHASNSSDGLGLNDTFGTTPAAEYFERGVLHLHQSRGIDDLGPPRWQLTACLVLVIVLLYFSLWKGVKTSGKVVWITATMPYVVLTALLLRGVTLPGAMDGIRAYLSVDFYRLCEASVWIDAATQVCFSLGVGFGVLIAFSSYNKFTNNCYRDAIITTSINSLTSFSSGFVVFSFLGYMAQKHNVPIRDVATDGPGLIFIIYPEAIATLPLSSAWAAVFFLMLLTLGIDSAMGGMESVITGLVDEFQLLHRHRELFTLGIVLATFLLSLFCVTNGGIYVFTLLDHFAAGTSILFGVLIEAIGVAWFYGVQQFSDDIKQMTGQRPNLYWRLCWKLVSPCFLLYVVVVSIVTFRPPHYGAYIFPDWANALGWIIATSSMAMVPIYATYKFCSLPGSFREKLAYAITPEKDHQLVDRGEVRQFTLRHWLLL", "conditions": "percentage of maximal release response; ref Baumann et al. (2012b); cited from earlier work"}, "NET [11]": {"biological_target": "T2, NET", "test": "Release of [3H]MPP+ via NET in rat brain synaptosomes", "assay_type": "biochemical"}, "SERT [12]": {"biological_target": "T1, SERT", "test": "Inhibition of [3H]serotonin uptake in rat brain synaptosomes", "assay_type": "biochemical"}, "DAT [13]": {"biological_target": "T3, DAT", "test": "Inhibition of [3H]dopamine uptake in rat brain synaptosomes", "assay_type": "biochemical"}, "DAT [14]": {"biological_target": "T3, DAT", "test": "Release of [3H]MPP+ via DAT in rat brain synaptosomes", "assay_type": "biochemical"}, "NET [15]": {"biological_target": "T2, NET", "test": "Inhibition of [3H]norepinephrine uptake in rat brain synaptosomes", "assay_type": "biochemical"}, "SERT [16]": {"biological_target": "T1, SERT", "test": "Release of [3H]serotonin via SERT in rat brain synaptosomes", "assay_type": "biochemical"}}, "note": "Where two headings read alike, the source gives them in different places."}
{"smiles": "COC(=O)[C@H]1[C@@H](OC(=O)c2ccccc2)C[C@@H]2CC[C@H]1N2C", "note": "[Cocaine]", "values": [{"measurement": "Brain stimulation reward thresholds", "setting": "mice [1]", "result": "this effect is mimicked by identical doses of cocaine"}]}
{"smiles": "CC(N)Cc1ccccc1", "note": "(centres unmarked) [Amphetamine]", "values": [{"measurement": "SERT release Emax %", "setting": "SERT [2]", "result": "97 ± 2", "unit": "%"}, {"measurement": "NET release Emax %", "setting": "NET [3]", "result": "92 ± 1", "unit": "%"}]}
{"smiles": "CNC(C)C(=O)c1ccc2c(c1)OCO2", "note": "(centres unmarked) [Methylone, 3,4-methylenedioxymethcathinone]", "values": [{"measurement": "Extracellular levels of dopamine and serotonin in rat nucleus accumbens", "setting": "[4]", "result": "increases extracellular levels of dopamine and serotonin"}, {"measurement": "SERT release Emax %", "setting": "SERT [2]", "result": "98 ± 2", "unit": "%"}]}
{"smiles": "CNC(C)C(=O)c1ccc(C)cc1", "note": "(centres unmarked) [Mephedrone, 4-methylmethcathinone]", "values": [{"measurement": "Self-administration by rats", "setting": "rats [5]; i.v., 0.24 mg/infusion, ref Hadlock et al. (2011)", "result": "is self-administered by rats"}, {"measurement": "Place preference in mice", "setting": "mice [6]", "result": "engenders a positive place preference"}, {"measurement": "Extracellular levels of dopamine and serotonin in rat nucleus accumbens", "setting": "[4]", "result": "increases extracellular levels of dopamine and serotonin"}, {"measurement": "Brain stimulation reward thresholds", "setting": "mice [1]", "result": "lowers brain stimulation reward thresholds"}, {"measurement": "Rate of clearance compared to MDMA", "setting": "[7]", "result": "much faster rate of clearance when compared to MDMA"}, {"measurement": "Place preference in rats", "setting": "rats [8]", "result": "engenders a positive place preference"}, {"measurement": "SERT release Emax %", "setting": "SERT [2]", "result": "101 ± 1", "unit": "%"}, {"measurement": "Locomotor stimulant effects in mice", "setting": "mice [9]", "result": "produces locomotor stimulant effects"}, {"measurement": "NET release Emax %", "setting": "NET [3]", "result": "99 ± 4", "unit": "%"}, {"measurement": "DAT release Emax %", "setting": "DAT [10]", "result": "102 ± 2", "unit": "%"}]}
{"smiles": "CNC(C)Cc1ccc2c(c1)OCO2", "note": "(centres unmarked) [MDMA, 3,4-methylenedioxymethamphetamine]", "values": [{"measurement": "EC50", "setting": "NET [11]", "result": "53 ± 7", "unit": "nM"}, {"measurement": "Emax", "setting": "NET [11]; read-out: NET release Emax %", "result": 95, "unit": "%"}, {"measurement": "IC50", "setting": "SERT [12]", "result": "125 ± 11", "unit": "nM"}, {"measurement": "IC50", "setting": "DAT [13]", "result": "1010 ± 39", "unit": "nM"}, {"measurement": "EC50", "setting": "DAT [14]", "result": "42 ± 2", "unit": "nM"}, {"measurement": "Emax", "setting": "DAT [14]; read-out: DAT release Emax %", "result": 100, "unit": "%"}, {"measurement": "IC50", "setting": "NET [15]", "result": "450 ± 30", "unit": "nM"}, {"measurement": "EC50", "setting": "SERT [16]", "result": "39 ± 5", "unit": "nM"}, {"measurement": "Emax", "setting": "SERT [16]; read-out: SERT release Emax %", "result": 103, "unit": "%"}]}
{"smiles": "CCCC(C(=O)c1ccc2c(c1)OCO2)N1CCCC1", "note": "(centres unmarked) [MDPV, 3,4-methylenedioxypyrovalerone]", "values": [{"measurement": "Self-administration by rats", "setting": "rats [5]; i.v., 0.05, 0.1 or 0.2 mg/kg, ref Watterson et al., 2012", "result": "is readily self-administered by rats"}, {"measurement": "Drug-taking behavior with extended access", "setting": "rats [5]; rats allowed extended access to the drug, ref Watterson et al., 2012", "result": "escalation of drug-taking behavior is observed"}, {"measurement": "Uptake blocking potency at SERT compared to cocaine (fold less potent)", "setting": "SERT [12]; less potent than cocaine", "result": 10, "unit": "fold"}, {"measurement": "Uptake blocking potency at DAT compared to cocaine (fold more potent)", "setting": "DAT [13]; more potent than cocaine", "result": 50, "unit": "fold"}, {"measurement": "Uptake blocking potency at NET compared to cocaine (fold more potent)", "setting": "NET [15]; more potent than cocaine", "result": 10, "unit": "fold"}]}
